Results reported in paper PMC9709406 (Frontiers in Pharmacology, 2022).
Read-outs that look alike come from different tables or passages of the source.

Legend:
H1650TR cells = assay: MTT assay, taxol-resistant H1650TR; type: cell-based; details: Homo sapiens, NCI-H1650, 48 h, value in parentheses in H1650 column
Description: (§1) The human cancer cells (H1650, H1975, KYSE70, KYSE410 and KYSE450) were purchased from the Type Culture Collection of the Chinese Academy of Sciences (Shanghai, China). The human immortalized normal esophageal epithelial cell line SHEE was donated by Dr. Enmin Li from the Laboratory of Tumor Pathology (Shantou University Medical College, Shantou, Guangdong, China). Drug-resistant cells (H1650TR, H1975OR, KYSE70TR, KYSE410TR and KYSE450TR) were induced by China-US (Henan) Hormel Cancer Institute. The cellswere cultured in RPMI-1640 complete growth medium containing 100 U/mL penicillin-streptomycin and 10% FBS. Based on the above medium formula, 100 nm/L paclitaxel was added in taxol-resistant cells, 100 nm/L gefitinib was added in gefitinib-resistant cells. The cells were incubated at 37 °C in an atmosphere containing 5% of CO2. The compounds were dissolved in DMSO to make a 50 mM stock solution and were diluted to the concentration of working solutions with complete growth medium before administration.
(§2) Cells were seeded in 96-well plates with 2,200–2,500 cells/well in100 μL. One day after seeding, test compounds with the concentration between 0 and 50 μM were added with 0.1% DMSO as control. Five multiple wells for each concentration. After 48 h, MTT was added and incubated in the plate for 1–4 h in the incubator. The absorbance at 490 nm was measured using a microplate reader (Thermo).

H1975OR cells = assay: MTT assay, osimertinib-resistant H1975OR; type: cell-based; details: Homo sapiens, NCI-H1975, 48 h, osimertinib-resistant H1975OR, value in parentheses in H1975 column, read-out: IC50 48 h H1975OR (data in parentheses) (converted)
Description: as §1
as §2, with “After 48 h, MTT was added and incubated in the plate for 1–4 h in the incubator.” left out

KYSE70 cells = assay: MTT assay, KYSE70; type: cell-based, human
How it was run: (§3)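 Cells seeded at 2,200–2,500/well in RPMI-1640 with 10% FBS; taxol-resistant lines maintained in 100 nm/L paclitaxel. Compounds at 0–50 μM added next day (0.1% DMSO control), five replicate wells, 48 h exposure. Viability by MTT, absorbance 490 nm.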

KYSE450 cells [1] = assay: MTT assay, KYSE450; type: cell-based, human; details: for IC50: Homo sapiens, KYSE-450
How it was run: as §3

EGFR = target: T1, EGFR (Homo sapiens, UniProt P00533); assay: EGFR kinase assay (ELISA); type: biochemical; details: 25°C
T1 construct: purchased Active MOTIF
T1 sequence (P00533 25-1210): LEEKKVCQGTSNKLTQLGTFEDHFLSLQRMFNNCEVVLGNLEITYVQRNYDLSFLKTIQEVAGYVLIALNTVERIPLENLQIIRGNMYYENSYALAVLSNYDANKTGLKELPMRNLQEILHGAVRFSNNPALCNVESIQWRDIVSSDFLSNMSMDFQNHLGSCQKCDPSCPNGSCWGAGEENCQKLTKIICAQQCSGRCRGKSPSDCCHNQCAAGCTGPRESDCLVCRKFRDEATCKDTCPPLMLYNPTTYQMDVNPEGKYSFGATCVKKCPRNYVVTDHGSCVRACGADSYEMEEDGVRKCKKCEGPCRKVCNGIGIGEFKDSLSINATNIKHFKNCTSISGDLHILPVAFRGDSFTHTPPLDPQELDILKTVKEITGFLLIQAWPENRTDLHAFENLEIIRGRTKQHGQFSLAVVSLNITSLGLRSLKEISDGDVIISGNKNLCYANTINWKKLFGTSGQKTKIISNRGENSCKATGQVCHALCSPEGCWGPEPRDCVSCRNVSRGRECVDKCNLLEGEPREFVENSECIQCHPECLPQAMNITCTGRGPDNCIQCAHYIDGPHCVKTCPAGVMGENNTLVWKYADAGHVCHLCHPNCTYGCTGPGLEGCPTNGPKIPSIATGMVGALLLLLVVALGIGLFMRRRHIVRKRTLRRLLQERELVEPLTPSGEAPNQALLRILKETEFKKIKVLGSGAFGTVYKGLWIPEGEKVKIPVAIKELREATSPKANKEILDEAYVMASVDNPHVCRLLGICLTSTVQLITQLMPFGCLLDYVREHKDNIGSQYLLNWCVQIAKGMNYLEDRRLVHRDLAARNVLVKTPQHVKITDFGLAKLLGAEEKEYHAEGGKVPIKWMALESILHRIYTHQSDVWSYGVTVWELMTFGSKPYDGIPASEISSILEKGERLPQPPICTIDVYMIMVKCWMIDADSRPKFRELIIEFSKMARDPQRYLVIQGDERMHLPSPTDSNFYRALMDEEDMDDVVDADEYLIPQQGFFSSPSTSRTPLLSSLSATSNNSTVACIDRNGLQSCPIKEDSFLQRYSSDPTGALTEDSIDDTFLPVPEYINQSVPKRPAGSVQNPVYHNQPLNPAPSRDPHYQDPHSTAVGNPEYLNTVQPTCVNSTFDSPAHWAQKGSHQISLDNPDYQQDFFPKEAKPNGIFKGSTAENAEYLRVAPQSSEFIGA
How it was run: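 ELISA-format tyrosine kinase kit assay with commercially sourced EGFR enzyme. Active kinase and compounds were incubated in 1× reaction buffer with 20 μM substrate at 25 °C for 1 h and 2 h. Absorbance was read at 450 nm.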

KYSE450 cells [2] = assay: Annexin V/PI flow cytometry for apoptosis, KYSE450; type: cell-based, human; details: 48 h
Protocol: (§4) Cell-apoptosis analysis was carried out by flow cytometry using the Annexin V/PI apoptosis methods. […] Cells were harvested and incubated with 250 μL of 1 × Annexin V binding buffer containing 5 μL PI and 5 μL FITC Annexin V (final concentration 1.8 μg/ml, Biolegend (cat: 640945) for 15 min at room temperature in dark. 200 µL of 1 × binding buffer was added for flow cytometry analysis (BD FACSCalibur™ Flow Cytometer).

KYSE450TR cells [3] = assay: Annexin V/PI flow cytometry for apoptosis, KYSE450TR; type: cell-based, human; details: 48 h
Protocol: as §4

KYSE450 cells [4] = assay: Cell cycle analysis by flow cytometry, KYSE450; type: cell-based, human; details: KYSE450, 24 h; icotinib at 2 μM, 3l at 8 μM
Protocol: (§5) KYSE450/KYSE450TR cells were plated in 6-well plates with a density of 1×10^5 cells/well and cultured overnight. […] Trypsinization treatment and the cells were collected by centrifugation. The cell pellet was re-suspended in 70% ethanol at −20°C for at least 3 h. The cells were washed with PBS and were re-suspended in 250 μL of 0.6% tricine with Renease A for 1 h, then stained in PI (final concentration 1.8 μg/ml, Biolegend cat: 640945) for 15 min in dark. Cells were retransferred to the BD FACSCalibur™ Flow Cytometer. All analyses were performed with FlowJo software v105.3.6.

KYSE450TR cells [5] = assay: Cell cycle analysis by flow cytometry, KYSE450TR; type: cell-based, human; details: 24 h, icotinib at 8 μM, 3l at 8 μM
Protocol: as §5

[6] = tested on: EGFR-TK pathway in KYSE450 cells; assay: Western blot of EGFR-TK pathway proteins, KYSE450; type: cell-based, human; details: KYSE450, 3 μM
Protocol: (§6) Cells treated with 1% DMSO were used as control. Then the cells were harvested and total proteins were extracted. Total proteins were separated by 12% SDS polyacrylamide gel electrophoresis and transferred onto PVDF membranes. The membrane was blocked for 1 h, then incubated overnight with a 1 : 1000 dilution of anti-EGFR, anti-p-EGFR (Tyr1068/Tyr1086), anti-Erk1/2, and anti-p-Erk1/2 (Thr202/Tyr204), or 1 : 3000 dilution of anti-GAPDH primary antibody at 4°C. 1 : 3000 anti-rabbit secondary antibodies incubated for 2 h at room temperature. Protein bands were developed by chemiluminescence.

[7] = tested on: EGFR-TK pathway in KYSE450TR cells; assay: Western blot of EGFR-TK pathway proteins, KYSE450TR; type: cell-based, human; details: 3 μM, vs control
Protocol: as §6

FC(F)(F)c1ccc(-n2cc(-c3cccc(Nc4ncnc5cc6c(cc45)OCCOCCOCCO6)c3)nn2)cc1 [compound 3l]
IC50 (H1650TR cells): 8.43 µM | IC50 (H1975OR cells): 9.73 µM | IC50 (KYSE70 cells; Homo sapiens, KYSE-70, MTT, 48 h, KYSE70, n = 5): 4.25 ± 0.21 µM | blank-corrected absorbance 490 nm relative to control (fraction) (KYSE70 cells; KYSE70, concentration 2.25): 0.9298 | inhibition (1 minus fraction of control) (KYSE70 cells; KYSE70, concentration 2.25): 0.07024 | blank-corrected absorbance 490 nm relative to control (fraction) (KYSE70 cells; KYSE70, concentration 4.5): 0.4365 | inhibition (1 minus fraction of control) (KYSE70 cells; KYSE70, concentration 4.5): 0.5635 | blank-corrected absorbance 490 nm relative to control (fraction) (KYSE70 cells; KYSE70, concentration 9): 0.2659 | inhibition (1 minus fraction of control) (KYSE70 cells; KYSE70, concentration 9): 0.7341 | IC50 (KYSE450 cells [1]; KYSE450, MTT, 490 nm, read-out: IC50): 4 µM | IC50 (KYSE450 cells [1]; MTT, 48 h, KYSE450, n = 5, read-out: IC50 48 h KYSE450): 3.4 ± 0.16 µM | blank-corrected absorbance 490 nm relative to control (fraction) (KYSE450 cells [1]; KYSE450, concentration 2): 0.4268 | inhibition (1 minus fraction of control) (KYSE450 cells [1]; KYSE450, concentration 2): 0.5732 | blank-corrected absorbance 490 nm relative to control (fraction) (KYSE450 cells [1]; KYSE450, concentration 4): 0.4691 | inhibition (1 minus fraction of control) (KYSE450 cells [1]; KYSE450, concentration 4): 0.5309 | blank-corrected absorbance 490 nm relative to control (fraction) (KYSE450 cells [1]; KYSE450, concentration 8): 0.05646 | inhibition (1 minus fraction of control) (KYSE450 cells [1]; KYSE450, concentration 8): 0.9435 | IC50 (EGFR; incubation 1 h, read-out: IC50 EGFR 1 h): 0.42 µM | IC50 (EGFR; incubation 2 h, read-out: IC50 EGFR 2 h): 1.67 µM | proportion of apoptotic cells (KYSE450 cells [2]; KYSE450, 2 μM): 24.32% | proportion of apoptotic cells (KYSE450 cells [2]; KYSE450, 4 μM): 39.89% | proportion of apoptotic cells (KYSE450TR cells [3]; 5 μM): 32.12% | proportion of apoptotic cells (KYSE450TR cells [3]; 10 μM): 83.69% | cell cycle phase in which cells were arrested (KYSE450 cells [4]): G2/M phase | cell cycle phase in which cells were arrested (KYSE450TR cells [5]): G2/M phase | EGFR (Tyr1068) protein levels, 3l group compared with icotinib group [6]: no obvious difference | ERK1/2 protein levels ([6]; vs control): lower than the control at 0.5, 1, 2, 3, and 6 h | P-EGFR (Tyr1068) protein levels ([6]; vs control): lower than the control at 1 h | P-EGFR (Tyr1086) protein levels ([6]; vs control): lower than the control at 0.5, 1, 2, 3, and 6 h | P-ERK1/2 (Thr202/Tyr204) protein levels ([6]; vs control): lower than the control at 0.5, 1, 2, 3, and 6 h | P-EGFR (Tyr1068) protein levels [7]: lower than the control at 1 and 2 h | P-ERK1/2 (Thr202/Tyr204) protein levels [7]: lower than the control at 6 h
